This is an account of results in patent US20110184025A1, “Methods and Compositions Using Immunomodulatory Compounds for the Treatment and Management of Spirochete and Other Obligate Intracellular Bacterial Diseases” (priority 2006, published 2011).

The conditions of data set [1]: Form A: among anhydrous polymorphs; Form E: in aqueous solvent systems; cited from earlier work.
Data set [2] concerns T-cells. The data set can be described thus: Stimulation of T-cell proliferation following primary induction by TCR activation. It counts as cell-based.
In data set [3] the test system is IL-2. Put plainly: Augmentation of IL-2 production following TCR activation of PBMC. It counts as cell-based.
Data set [4] concerns IFN-γ. The data set can be described thus: Augmentation of IFN-γ production following TCR activation of T-cells. The class given is cell-based.
Data set [5] has as its system IL-10. The data set can be described thus: LPS-stimulated production of IL-10 by PBMC. The class given is cell-based.
Data set [6] deals with Beagle dogs. The data set can be described thus: Cardiovascular and respiratory function in anesthetized dogs. To be noted: anesthetized Beagle dogs, 2, 10 and 20 mg/kg infusion via jugular vein, all doses.

Consider `Nc1cccc2c1CN(C1CCC(=O)NC1=O)C2=O` (stereo not shown) [Form E, 3-(4-amino-1-oxo-1,3 dihydro-isoindol-2-yl)-piperidene-2,6-dione], for which, in data set [1], the “Relative stability of polymorph” value is listed as “most stable form”.

In the case of `Nc1cccc2c1CN(C1CCC(=O)NC1=O)C2=O` (stereo not shown), in data set [2], the “Potency relative to thalidomide in stimulating proliferation of T-cells” value is 50-100 times. Further, the “Potency relative to thalidomide in augmenting production of IL-2” value in data set [3] is listed as 50-100 times. For the same compound, the “Potency relative to thalidomide in augmenting production of IFN-γ” value in data set [4] was 50-100 times. The “Effect on production of IL-10 by PBMC” value in data set [5] is reported as “increased production”. In addition, the “Cardiovascular and respiratory changes compared to vehicle control” value in data set [6] was “minimal”.

Consider `Nc1cccc2c1CN(C1CCC(=O)NC1=O)C2=O` (stereo not shown) [Form A, 3-(4-amino-1-oxo-1,3 dihydro-isoindol-2-yl)-piperidene-2,6-dione], for which the “Relative stability of polymorph” value in data set [1] is reported as “most thermodynamically stable anhydrous polymorph”.
